Assay results published in patent publication US12612391B2, “Cromolyn derivatives and uses thereof” (The General Hospital Corporation, priority 2020, dated 2026).

Tested on: BV2-CD33^WT cells
Assay: Aβ42 uptake in microglial BV2-CD33^WT cells (Aβ42-specific ELISA of cell lysates)
Format: cell-based
Settings: 100 μM; BV2-CD33 activated microglial cells; 3 hours pre-treatment, then 2 hours with Aβ42 peptide; vs DMSO control; FIG. 2
Procedure: FIG. 2 is a plot showing Aβ42 uptake in microglial BV2-CD33^WT cells treated with DMSO as control or cromolyn derivatives (C1, C3-8) at different concentrations for 3 hours. Afterwards, cells were incubated with DMSO or cromolyn derivatives in the presence of the Aβ42 peptide for additional 2 hours. Cell lysates were analyzed for intracellular levels of Aβ42 using an Aβ42-specific ELISA kit.

CC(=O)OCc1cc(=O)c2c(OCC(COc3cccc4oc(COC(C)=O)cc(=O)c34)OC(C)=O)cccc2o1 [Compound C7, Ac-Triol- Cromolyn]
microglial uptake of Aβ42: positive impact
